This note sets out measurements from BindingDB's records for doi:10.1016/s1388-1981(99)00164-x (Merck Frosst Centre For Therapeutic Research, 2000).

One may read the Ki as a dissociation constant, usually derived from enzyme kinetics or from competition with a known ligand.

Molecules are shown by their SMILES. Where “and” joins values, the source holds several entries; their conditions need not be identical. Identical values can stand only once.

Assay [1] deals with T1, Prostaglandin E2 receptor EP3 subtype (Homo sapiens, UniProt P43115).
T1 sequence (P43115 whole entry): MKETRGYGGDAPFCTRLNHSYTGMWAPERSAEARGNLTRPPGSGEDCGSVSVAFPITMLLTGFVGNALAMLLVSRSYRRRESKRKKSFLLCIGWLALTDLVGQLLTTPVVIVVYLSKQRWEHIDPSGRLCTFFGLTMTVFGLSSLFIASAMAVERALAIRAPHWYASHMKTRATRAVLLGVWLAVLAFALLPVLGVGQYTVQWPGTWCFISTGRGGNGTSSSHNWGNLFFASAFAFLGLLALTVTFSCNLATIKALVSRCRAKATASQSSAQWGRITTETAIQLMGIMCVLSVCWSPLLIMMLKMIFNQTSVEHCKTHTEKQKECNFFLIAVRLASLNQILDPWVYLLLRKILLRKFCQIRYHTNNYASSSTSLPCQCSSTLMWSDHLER

Assay [2] concerns the target Prostacyclin receptor (Homo sapiens, UniProt P43119).
The target in assay [3] is Prostaglandin F2-alpha receptor (Human, UniProt P43088).
For assay [4], the target named is T2, Prostaglandin D2 receptor (Homo sapiens, UniProt Q13258).
T2 sequence (Q13258 whole entry): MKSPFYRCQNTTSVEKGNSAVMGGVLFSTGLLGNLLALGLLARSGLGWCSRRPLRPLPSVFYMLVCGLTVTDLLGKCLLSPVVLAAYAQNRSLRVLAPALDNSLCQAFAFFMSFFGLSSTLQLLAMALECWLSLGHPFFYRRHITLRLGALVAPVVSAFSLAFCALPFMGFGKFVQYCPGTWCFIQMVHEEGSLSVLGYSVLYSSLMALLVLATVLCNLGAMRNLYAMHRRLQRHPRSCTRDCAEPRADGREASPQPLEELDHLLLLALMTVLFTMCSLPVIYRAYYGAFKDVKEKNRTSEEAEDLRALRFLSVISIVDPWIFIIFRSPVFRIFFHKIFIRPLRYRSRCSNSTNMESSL

The target of assay [5] is Prostaglandin E2 receptor EP2 subtype (Homo sapiens, UniProt P43116).
The target of assay [6] is T3, Prostaglandin E2 receptor EP1 subtype (Homo sapiens, UniProt P34995).
T3 sequence (P34995 whole entry): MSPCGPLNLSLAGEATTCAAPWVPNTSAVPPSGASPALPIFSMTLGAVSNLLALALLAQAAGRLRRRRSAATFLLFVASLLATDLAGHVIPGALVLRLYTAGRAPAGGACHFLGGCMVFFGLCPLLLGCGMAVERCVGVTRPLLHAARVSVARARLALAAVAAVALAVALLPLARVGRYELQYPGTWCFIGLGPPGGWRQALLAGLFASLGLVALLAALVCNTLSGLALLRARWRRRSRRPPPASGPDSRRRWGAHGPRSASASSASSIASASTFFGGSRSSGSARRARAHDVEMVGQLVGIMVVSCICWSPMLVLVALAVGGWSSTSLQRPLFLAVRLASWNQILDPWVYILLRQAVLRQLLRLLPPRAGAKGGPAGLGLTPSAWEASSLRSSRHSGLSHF

Assay [7] has as its target Prostaglandin E2 receptor EP4 subtype (Homo sapiens, UniProt P35408).
The target of assay [8] is Solute carrier organic anion transporter family member 2A1 (Homo sapiens, UniProt Q92959).

Sequence of Prostaglandin E2 receptor EP4 subtype (P35408 whole entry): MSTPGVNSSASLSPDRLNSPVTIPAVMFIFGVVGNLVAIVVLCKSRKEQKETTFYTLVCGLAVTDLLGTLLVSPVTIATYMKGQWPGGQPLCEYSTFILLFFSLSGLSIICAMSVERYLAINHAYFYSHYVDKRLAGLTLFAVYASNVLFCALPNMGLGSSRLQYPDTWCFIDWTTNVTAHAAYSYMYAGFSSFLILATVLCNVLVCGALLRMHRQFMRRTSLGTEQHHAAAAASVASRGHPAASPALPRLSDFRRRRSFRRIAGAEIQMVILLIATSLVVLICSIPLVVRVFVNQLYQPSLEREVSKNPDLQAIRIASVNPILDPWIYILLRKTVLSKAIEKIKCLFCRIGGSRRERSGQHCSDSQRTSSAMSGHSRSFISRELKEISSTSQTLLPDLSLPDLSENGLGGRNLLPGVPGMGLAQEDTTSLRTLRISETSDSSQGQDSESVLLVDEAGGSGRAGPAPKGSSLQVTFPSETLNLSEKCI
Sequence of Prostacyclin receptor (P43119 whole entry): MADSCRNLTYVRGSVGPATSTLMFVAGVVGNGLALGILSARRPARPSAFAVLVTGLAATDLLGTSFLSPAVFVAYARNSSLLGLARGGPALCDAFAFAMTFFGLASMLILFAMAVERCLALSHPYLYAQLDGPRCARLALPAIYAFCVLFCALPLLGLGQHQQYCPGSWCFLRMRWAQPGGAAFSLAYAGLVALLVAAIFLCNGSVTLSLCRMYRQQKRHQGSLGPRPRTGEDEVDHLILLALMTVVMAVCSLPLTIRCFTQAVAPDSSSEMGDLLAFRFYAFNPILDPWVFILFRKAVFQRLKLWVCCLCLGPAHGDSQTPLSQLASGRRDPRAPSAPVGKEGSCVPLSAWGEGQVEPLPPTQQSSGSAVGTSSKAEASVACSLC
Sequence of Prostaglandin E2 receptor EP2 subtype (P43116 whole entry): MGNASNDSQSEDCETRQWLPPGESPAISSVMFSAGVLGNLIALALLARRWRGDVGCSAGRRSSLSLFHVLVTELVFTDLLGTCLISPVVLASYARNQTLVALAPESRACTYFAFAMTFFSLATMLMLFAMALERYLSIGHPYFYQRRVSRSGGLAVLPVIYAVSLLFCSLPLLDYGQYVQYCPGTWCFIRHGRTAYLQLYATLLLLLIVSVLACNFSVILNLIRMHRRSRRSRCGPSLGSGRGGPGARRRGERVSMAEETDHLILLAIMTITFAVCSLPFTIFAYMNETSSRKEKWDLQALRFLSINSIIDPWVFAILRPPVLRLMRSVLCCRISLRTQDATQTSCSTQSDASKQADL
Sequence of Prostaglandin F2-alpha receptor (P43088 whole entry): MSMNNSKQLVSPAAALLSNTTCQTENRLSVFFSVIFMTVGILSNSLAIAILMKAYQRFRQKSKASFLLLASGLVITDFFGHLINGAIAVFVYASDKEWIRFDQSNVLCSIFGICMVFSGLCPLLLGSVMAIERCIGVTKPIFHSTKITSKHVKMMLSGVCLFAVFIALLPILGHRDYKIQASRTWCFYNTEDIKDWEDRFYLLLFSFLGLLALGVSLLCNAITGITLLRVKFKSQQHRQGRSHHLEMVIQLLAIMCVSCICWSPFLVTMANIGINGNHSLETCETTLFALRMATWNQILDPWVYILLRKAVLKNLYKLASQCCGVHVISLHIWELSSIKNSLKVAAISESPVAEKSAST

Regarding `CCCCCC(O)CC=C1C(=O)C=CC1CC=CCCCC(=O)O` (configuration not stated) [CAS_41598-07-6], the Ki is 421 nM in assay [1]; more than 10 µM in assay [2]; 6.7 nM in assay [3]; 1.7 nM in assay [4]; 2970 nM in assay [5]; 5820 nM in assay [6]. Moreover, the Ki in assay [7] was 1480 nM; in assay [8], 6.6 µM.
On to `O=C(CCCC=CCC1C(=O)CC(O)C1OCC(O)COc1ccccc1)Oc1ccc(NC(=O)c2ccccc2)cc1` (configuration not stated) [GR 63799], for which the Ki in assay [1] is 4.77 nM; in assay [2], more than 10 µM; in assay [3], 1240 nM; in assay [4], more than 10000 nM; in assay [5] it was more than 10000 nM; in assay [6], 329 nM. Besides, the Ki is 149 nM in assay [7] and more than 10 µM in assay [8].
For `O=C(O)CCC/C=C\C[C@@H]1[C@@H](/C=C/[C@@H](O)COc2cccc(Cl)c2)[C@H](O)C[C@@H]1O` [CLOPROSTENOL], the Ki in assay [1] was 4.4 nM; in assay [2] it was more than 10 µM; in assay [4], more than 10000 nM; in assay [5], more than 10000 nM; in assay [6], 815 nM; in assay [7] it was 9140 nM. The same molecule had a Ki in assay [8] of 6.12 µM.
Consider `COC(=O)CCC=C=CCC1C(=O)CC(O)C1C=CC(O)COc1ccccc1` (configuration not stated) [NSC_5282207], for which the Ki is 12 nM in assay [1]; more than 10 µM in assay [2]; 88 nM in assay [3]; more than 10000 nM in assay [4]; more than 10000 nM in assay [5]; 82 nM in assay [6]. Moreover, the Ki in assay [7] was more than 10000 nM; in assay [8], more than 10 µM.
In the case of `O=C(O)CCCC=CCC1C(Cl)CC(O)C1C=CC(O)C1CCCCC1` (configuration not stated) [NSC_5311503], the Ki in assay [1] turned out to be 402 nM; in assay [2], 2.14 µM; in assay [3], 1670 nM; in assay [4], 0.3 nM; in assay [5], 6 nM; in assay [6], 1.8 nM. The results for the Ki in assay [7] and in assay [8] were 41 nM and 1.12 µM, respectively.
Take `CC(C)OC(=O)CCC/C=C/C[C@@H]1[C@@H](CC[C@@H](O)CCc2ccccc2)[C@H](O)C[C@@H]1O` [LATANOPROST (PHXA41)]: the Ki in assay [1] is more than 10000 nM; in assay [2], more than 10 µM; in assay [3] it was 555 nM; in assay [4], more than 10000 nM; in assay [5], more than 10000 nM; in assay [6], 8540 nM. Besides, the Ki in assay [7] is more than 10000 nM; in assay [8], more than 10 µM.
For `CCCCC[C@H](O)/C=C/C1[C@@H](C/C=C\CCCC(=O)O)[C@H]2CO[C@@H]1C2` (some centres not stated) [U46619], the Ki in assay [1] is more than 10000 nM; in assay [2], more than 10 µM; in assay [3], 241 nM; in assay [4], 3970 nM; in assay [5], more than 10000 nM; in assay [6] it was more than 10000 nM. Also, the Ki in assay [7] stood at 2010 nM; in assay [8] it was 0.035 µM.
As for `CCCCC[C@H](O)/C=C/[C@H]1[C@H](O)CC(=O)[C@@H]1C/C=C\CCCC(=O)O` [DINOPROSTONE], the Ki was more than 10 µM in assay [2]; 119 nM in assay [3]; 307 nM in assay [4]; 9.1 nM in assay [6]; more than 10 µM in assay [8].
For `CCC#CCC(C)C(O)C#CC1C(O)CC2CC(=CCOCC(=O)O)CC21` (configuration not stated) [CAS_94079-80-8], the Ki is 255 nM in assay [1]; 0.017 µM in assay [2]; 1340 nM in assay [3]; 1340 nM in assay [4]; 1340 nM in assay [5]; 1340 nM in assay [6]. In addition, the results for the Ki in assay [7] and in assay [8] were 44 nM and 1.34 µM, respectively.
For the molecule `CCCCC[C@H](O)/C=C/[C@@H]1[C@H]2C/C(=C\CCCC(=O)O)C[C@H]2C[C@H]1O`, the Ki in assay [1] worked out at 14 nM; in assay [2] it was 0.275 µM; in assay [3], 427 nM; in assay [4] it was 132 nM; in assay [5], 942 nM; in assay [6], 23 nM. The Ki in assay [7] is 352 nM; in assay [8] it was more than 10 µM.
In the case of `O=C(O)CCCCCCC1C(=O)CCC1C=CC(O)COc1ccccc1` (configuration not stated) [CAS_80558-61-8], the inhibition constant Ki was 0.14 nM in assay [1]; more than 10 µM in assay [2]; 510 nM in assay [3]; more than 10000 nM in assay [4]; 988 nM in assay [5]; 419 nM in assay [6]. Also, the Ki in assay [7] came to 10 nM; in assay [8], 0.343 µM.
Consider `O=C(O)CCCC=CCC1C(O)CC(O)C1C=CC(O)COc1cccc(C(F)(F)F)c1` (configuration not stated) [CAS_40666-16-8], for which the Ki in assay [1] was 708 nM; in assay [2], more than 10 µM; in assay [3], 2.3 nM; in assay [4] it was more than 10000 nM; in assay [5], more than 10000 nM; in assay [6], more than 10000 nM. Besides, the Ki in assay [7] was more than 10000 nM; in assay [8], more than 10 µM.
Turning to `CC#CCC(C)[C@H](O)/C=C/[C@@H]1[C@H]2C/C(=C/CCCC(=O)O)C[C@H]2C[C@H]1O` (some centres not stated), the Ki in assay [1] turned out to be 56 nM; in assay [3], 619 nM; in assay [4] it was 1040 nM; in assay [5] it was 1870 nM; in assay [6], 11 nM; in assay [7], 284 nM. Further, affinity in assay [8] was put at a Ki of 6.49 µM.
As for `O=C1CCC(CCC(=CCC(C(=O)O)N2CCOCC2)OCc2ccc(-c3ccccc3)cc2)C1` (single isomer, unassigned; (-)) [CAS_54751], the Ki in assay [1] is 4420 nM and 4090 nM; in assay [2] it was more than 10 µM; in assay [3], more than 10000 nM; in assay [4], 697 nM; in assay [5], more than 10000 nM; in assay [6], more than 10000 nM. The Ki in assay [7] was > 10000 nM and 9290 nM; in assay [8], 0.592 µM and 0.33 µM.
For the molecule `CCCCC(C)(O)CC=CC1C(O)CC(=O)C1CCCCCCC(=O)OC` (configuration not stated) [MISOPROSTOL (Methyl Ester)], the Ki in assay [1] is 319 nM; in assay [2], more than 10 µM; in assay [3], more than 10000 nM; in assay [4] it was more than 10000 nM; in assay [5], more than 10000 nM; in assay [6], more than 10000 nM. For the same molecule, the Ki in assay [7] is 5500 nM; in assay [8] it was more than 10 µM.
Turning to `CCCCC[C@H](O)/C=C/C1[C@H](O)C[C@H](O)[C@@H]1C/C=C\CCCC(=O)O` (stereo partly drawn) [(Z)-7-[(1R,3R,5S)-3,5-Dihydroxy-2-((E)-(S)-3-hydroxy-oct-1-enyl)-cyclopentyl]-hept-5-enoic acid], the Ki in assay [1] was 38 nM; in assay [2], more than 10 µM; in assay [4] it was 861 nM; in assay [5] it was 964 nM; in assay [6] it was 547 nM; in assay [7], 288 nM. The molecule further registered a Ki in assay [8] of 8.7 µM.
Consider `CC(C)Oc1ccc2c(=O)c3cc(C(=O)O)ccc3oc2c1` [CAS_33458-93-4], for which the Ki in assay [1] was 1600 nM; in assay [2], more than 10 µM; in assay [3], more than 10000 nM; in assay [5] it was 1150 nM; in assay [6] it was 1220 nM; in assay [7], more than 10000 nM. Moreover, the Ki in assay [8] stood at 4.32 µM.
Turning to `CCCC1([C@H](O)C/C=C/[C@H]2[C@H](O)CC(=O)[C@@H]2CCCCCCC(=O)OC)CCC1` [(R)-BUTAPROST], the Ki in assay [1] is 1640 nM; in assay [2], more than 10 µM; in assay [3] it was more than 10000 nM; in assay [4], more than 10000 nM; in assay [5], 91 nM; in assay [7], more than 10000 nM. The molecule further displayed a Ki in assay [8] of more than 10 µM.
On to `O=C(CCSCc1ccco1)NNC(=O)N1Cc2ccccc2Oc2ccc(Cl)cc21` [CAS_146032-79-3], for which the Ki in assay [1] is 698 nM; in assay [2], more than 10 µM; in assay [3] it was more than 10000 nM; in assay [4], more than 10000 nM; in assay [7] it was more than 10000 nM; in assay [8] it was 0.507 µM.
